Data as given in US20090215710A1, “CARBOHYDRATE BASED TOLL-LIKE RECEPTOR (TLR) ANTAGONISTS” (RELIANCE LIFE SCIENCES PVT. LTD., priority 2007, published 2009).

How the values were obtained:
[1] = test system: TNF; experiment: Pre-screen for TNF inhibition activity of synthesized molecules (Table 1); format: cell-based
[2] = Cell viability in pre-screen (Table 1); format: cell-based
[3] = target: T1, TLR6 (Homo sapiens, UniProt Q9Y2C9); experiment: TLR6 ligand induced TNF-α secretion (ELISA); format: cell-based; details: cells treated with TLR6 ligand 75 ng/ml
T1 construct: endogenous in cells; host or cells: THP-1 monocytes and/or PBMCs
T1 sequence (Q9Y2C9 32-796): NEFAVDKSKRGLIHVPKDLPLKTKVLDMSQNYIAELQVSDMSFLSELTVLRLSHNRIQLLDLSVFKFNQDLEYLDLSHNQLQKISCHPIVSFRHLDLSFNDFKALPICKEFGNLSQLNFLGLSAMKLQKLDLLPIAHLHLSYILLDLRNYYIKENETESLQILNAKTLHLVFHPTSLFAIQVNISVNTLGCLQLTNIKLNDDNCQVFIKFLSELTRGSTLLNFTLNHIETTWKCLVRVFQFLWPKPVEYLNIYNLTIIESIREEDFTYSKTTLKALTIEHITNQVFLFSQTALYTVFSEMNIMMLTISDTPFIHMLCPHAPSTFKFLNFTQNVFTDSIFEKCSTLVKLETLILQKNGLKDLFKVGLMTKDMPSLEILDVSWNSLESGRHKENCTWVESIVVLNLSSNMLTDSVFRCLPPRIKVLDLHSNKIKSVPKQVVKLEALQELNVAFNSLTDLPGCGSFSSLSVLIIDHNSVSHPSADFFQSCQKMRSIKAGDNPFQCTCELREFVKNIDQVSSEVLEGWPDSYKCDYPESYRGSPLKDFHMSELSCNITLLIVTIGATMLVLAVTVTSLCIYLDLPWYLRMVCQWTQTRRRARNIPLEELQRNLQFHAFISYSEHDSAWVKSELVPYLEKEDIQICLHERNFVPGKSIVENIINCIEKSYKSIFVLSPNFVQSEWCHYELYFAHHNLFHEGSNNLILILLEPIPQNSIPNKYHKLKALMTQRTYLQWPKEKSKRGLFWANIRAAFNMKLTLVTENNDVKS
Method: The present invention has checked the effect of various TLR ligands on THP-1 monocytes, PBMCs and their ability to activate and release TNF-α. For this purpose about 9 TLR ligands were used. These ligands were obtained from Apotech Cat; APO-54N-018-K100 and assayed for TNF-α release in culture supernatants.
THP-1 and PBMCs (2×10^5 cells/well) were plated in 96-well plate. The cells were pretreated with RSCL-0409 in DMSO 1 hr prior to TLR ligand treatment. Following 1 hr pre-treatment, the cells were treated with TLR ligands [TLR2, TLR5 and TLR6-75 ng/ml each, TLR3-75 μg/ml, TLR4-750 ng/ml, TLR7, TLR8 and TLR9-7.5 μg/ml) for 24 hrs. The culture supernatant were collected after the stipulated time and assayed for TNF-α release using a Duoset Enzyme-Linked ImmunoSorbent Assay (ELISA) detection Kit (R&D systems, MN 55413, USA; Cat: DY-210 E). Simultaneously supernatants were collected from cells treated with ligands without pre-treatment with RSCL-0409 and only RSCL-0409 without ligand treatment.

[4] = test system: TNF-α; experiment: LPS induced TNF-α secretion in THP-1 monocytes, dose dependence (ELISA); format: cell-based, human; details: THP-1, LPS 250 ng/ml, 100, 50, 10 and 1 μM, 24 hr
Method: To confirm whether the inhibitory effect of RSCL-0409 is dose-dependent, the present invention has studied the ability of RSCL-0409 to inhibit TNF-α secretion from LPS (250 ng/ml) induced THP-1 monocytes (FIG. 2a).
THP-1, 2×10^5 cells/well was plated in 96-well plate. The cells were pretreated with RSCL-0409 at various concentrations (100 μM, 50 μM, 10 μM and 1 μM) 1 hr prior to LPS stimulation. As a control group, cells were treated with LPS alone and cells treated with RSCL-0409 alone were used. TNF-α secretion was estimated in the culture supernatants following 24 hr LPS stimulation using Duoset ELISA detection Kit (R&D systems, MN, USA). *P<0.05, ***P<0.001 values are comparisons for LPS treated vs. RSCL-0409 treated, NS indicates not significant.

[5] = test system: NEMO and IκB-α; experiment: Immunoblot of NEMO and IκB-α in LPS stimulated THP-1 cells; format: cell-based, human; details: THP-1, LPS 250 ng/ml
Method: NF-κB/IκB complexes are present in the cytoplasm under unstimulated conditions. Following stimulation with LPS, we see phosphorylation and subsequent degradation of IκB allowing the free NF-κB to translocate into the nucleus to activate genes with NF-κB binding regions. Therefore, the effect of RSCL-0409 on blocking of NF-κB nuclear translocation was checked. Serum-starved THP-1 cells were stimulated with LPS (250 ng/ml) for the indicated time (FIG. 7a) in the presence and absence of RSCL-0409 ([…]). RSCL-0409 treatment was 1 hr prior to LPS treatment. Total protein was isolated from the treated cells, and an equal amount of protein from each sample was used for immunoblots to determine protein levels of NEMO and IκB-α. The blot was stripped and reprobed with an anti-ERK-1/2 antibody to ensure equal loading. […] This leads to inhibition of phosphorylation and further blocking p65 dissociation from IκB-α.

[6] = test system: NF-κB; experiment: NF-κB SEAP reporter assay in THP-1 CD14 Blue cells; format: cell-based, human; details: LPS 250 ng/ml, 24 hr
Method: THP-1 CD14 Blue cells (Invivogen, San Diego, Calif., USA) transfected with a SEAP reporter construct in which the reporter expression was regulated by the NF-κB promoter were stimulated with LPS (250 ng/ml) with or without RSCL-0409 for 24 hr. […] The reporter activity was determined using Quanti Blue kit (Invivogen). The data (FIG. 8) is plotted as the relative change of reporter activity. NS; not significant, ** P value <0.01, *** P value <0.001 are statistics for Cells Vs RSCL-0409 treated and LPS treated vs. RSCL-0409 followed by LPS treatment respectively. These observations further confirm that the RSCL-0409 inhibits LPS induced TLR mediated activation of NF-κB transcription factor.

SMILES: COc1ccc(OC2OC3COC(c4ccccc4)OC3C(OC3OC(COC(=O)CCC(C)=O)C(OC(=O)CCl)C(OC(C)=O)C3OC(C)=O)C2NC(=O)C(Cl)(Cl)Cl)cc1 [RSCL-0409, p-Methoxy phenyl-O-(2,3-di-O-acetyl-4-O-chloroacetyl-6-O-levulinoyl-β-D-glucopyranosyl)-(1-3)-2-deoxy-2-trichloroacetamido-4,6-O-benzylidene-α-D-glucopyranoside]
- % TNF Inhibition ([1]; 1 uM): 0%
- % TNF Inhibition ([1]; 10 uM): 32%
- % TNF Inhibition ([1]; 50 uM): 81%
- % TNF Inhibition ([1]; 100 uM): 91%
- % Viability ([2]; 1 uM): 108%
- % Viability ([2]; 10 uM): 112%
- % Viability ([2]; 50 uM): 114%
- % Viability ([2]; 100 uM): 113%
- effect on TNF-α secretion [3]: no effect observed
- LPS induced TNF-α secretion [4]: inhibited by RSCL-0409 in a concentration dependent manner
- activation of NEMO [5]: blocked signaling to NEMO
- degradation of IκB-α [5]: accumulation of IκB-α
- SEAP reporter activity (NF-κB promoter) [6]: blocked in a dose dependent manner
